13 compounds from patent US20260274892A1, “MACROCYCLIC BROAD SPECTRUM ANTIBIOTICS” (RQx Pharmaceuticals, Inc., priority 2017, published 2026) can be followed below.

In the assay the test system is Escherichia coli ATCC 25922. Briefly: Minimum inhibitory concentration (MIC), CLSI broth micro-dilution, E. coli. In kind it is cell-based. The following applies: Escherichia coli. Put shortly:
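Antibacterial potency is measured as MIC by the CLSI broth dilution method. Bacteria at OD600 0.0005 in Tween-80-supplemented cation-adjusted Mueller Hinton broth face ten twofold compound dilutions for 22 h at 35° C.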

The mark [1] stands for this setting: ATCC25922, 22 h, Table 7, cation adjusted Mueller Hinton Broth + 0.002% Tween-80, 35° C.
The mark [2] stands for this setting: ATCC25922, Table 7, cation adjusted Mueller Hinton Broth + 0.002% Tween-80, 35° C., 22 hours.

Consider `Cc1nc(-c2ccc(C(C)(C)C)cc2)nc(C)c1C(=O)N[C@@H](CCN)C(=O)N(C)[C@@H]1C(=O)N[C@@H](C)C(=O)N[C@H](C(=O)NCC#N)Cc2ccc(O)c(c2)-c2cc1ccc2OCC(CN)CN` (racemic) [Compound 611, rac-(8S,11S,14S)-18-[3-amino-2-(aminomethyl)propoxy]-N-(cyanomethyl)-3-hydroxy-11-methyl-14-[methyl-[rac-(2S)-4-amino-2-[[2-(4-tert-butylphenyl)-4,6-dimethyl-pyrimidine-5-carbonyl]amino]butanoyl]amino]-10,13-dioxo-9,12-diazatricyclo[13.3.1.12,6]icosa-1(18),2(20),3,5,15(19),16-hexaene-8-carboxamide], for which the MIC (in general, the lowest concentration that inhibits growth of the organism) under setting [1] amounted to 0.19 µM.
On to `Cc1nc(-c2ccc(C(C)(C)C)cc2)nc(C)c1C(=O)N[C@@H](CCN)C(=O)N(C)[C@@H]1C(=O)N[C@@H](C)C(=O)N[C@H](C(=O)NCC#N)Cc2ccc(OC[C@H](N)CO)c(c2)-c2cc1ccc2O` (racemic) [Compound 612, rac-(8S,11S,14S)-N-(cyanomethyl)-18-hydroxy-11-methyl-14-[methyl-[rac-(2S)-4-amino-2-[[2-(4-tert-butylphenyl)-4,6-dimethyl-pyrimidine-5-carbonyl]amino]butanoyl]amino]-10,13-dioxo-3-[rac-(2R)-2-amino-3-hydroxy-propoxy]-9,12-diazatricyclo[13.3.1.12,6]icosa-1(18),2(20),3,5,15(19),16-hexaene-8-carboxamide], for which the MIC under setting [1] stood at 0.25 µM.
`Cc1nc(-c2ccc(C(C)(C)C)cc2)nc(C)c1C(=O)N[C@@H](CCN)C(=O)N(C)[C@@H]1C(=O)N[C@@H](C)C(=O)N[C@H](C(=O)NCC#N)Cc2ccc(OC[C@@H](N)CO)c(c2)-c2cc1ccc2O` (racemic) [Compound 613, rac-(8S,11S,14S)-N-(cyanomethyl)-18-hydroxy-11-methyl-14-[methyl-[rac-(2S)-4-amino-2-[[2-(4-tert-butylphenyl)-4,6-dimethyl-pyrimidine-5-carbonyl]amino]butanoyl]amino]-10,13-dioxo-3-[rac-(2S)-2-amino-3-hydroxy-propoxy]-9,12-diazatricyclo[13.3.1.12,6]icosa-1(18),2(20),3,5,15(19),16-hexaene-8-carboxamide]: the MIC under setting [1] is 0.75 µM.
Consider `Cc1nc(-c2ccc(C(C)(C)C)cc2)nc(C)c1C(=O)N[C@@H](CCN)C(=O)N(C)[C@@H]1C(=O)N[C@@H](C)C(=O)N[C@H](C(=O)NCC#N)Cc2ccc(OC[C@H](O)CN)c(c2)-c2cc1ccc2O` (racemic) [Compound 614, rac-(8S,11S,14S)-N-(cyanomethyl)-18-hydroxy-11-methyl-14-[methyl-[rac-(2S)-4-amino-2-[[2-(4-tert-butylphenyl)-4,6-dimethyl-pyrimidine-5-carbonyl]amino]butanoyl]amino]-10,13-dioxo-3-[rac-(2R)-3-amino-2-hydroxy-propoxy]-9,12-diazatricyclo[13.3.1.12,6]icosa-1(18),2(20),3,5,15(19),16-hexaene-8-carboxamide], for which the MIC under setting [2] was 0.19 µM.
Take `Cc1nc(-c2ccc(OC3CCCCC3)cc2)nc(C)c1C(=O)N[C@@H](CCNS(N)(=O)=O)C(=O)N(C)[C@@H]1C(=O)N[C@@H](C)C(=O)N[C@H](C(=O)NCC#N)Cc2ccc(O)c(c2)-c2cc1ccc2OCCN` (racemic) [Compound 615, rac-(8S,11S,14S)-18-(2-aminoethoxy)-N-(cyanomethyl)-3-hydroxy-11-methyl-14-[methyl-[rac-(2S)-2-[[2-[4-(cyclohexoxy)phenyl]-4,6-dimethyl-pyrimidine-5-carbonyl]amino]-4-(sulfamoylamino)butanoyl]amino]-10,13-dioxo-9,12-diazatricyclo[13.3.1.12,6]icosa-1(18),2(20),3,5,15(19),16-hexaene-8-carboxamide]: the MIC under setting [1] turned out to be 1 µM.
On the same count and under the same terms, then `Cc1nc(-c2ccc(OC3CCCCC3)cc2)nc(C)c1C(=O)N[C@@H](CNS(N)(=O)=O)C(=O)N(C)[C@@H]1C(=O)N[C@@H](C)C(=O)N[C@H](C(=O)NCC#N)Cc2ccc(OCCN)c(c2)-c2cc1ccc2O` (racemic) [Compound 616, rac-(8S,11S,14S)-3-(2-aminoethoxy)-N-(cyanomethyl)-18-hydroxy-11-methyl-14-[methyl-[rac-(2S)-2-[[2-[4-(cyclohexoxy)phenyl]-4,6-dimethyl-pyrimidine-5-carbonyl]amino]-3-(sulfamoylamino)propanoyl]amino]-10,13-dioxo-9,12-diazatricyclo[13.3.1.12,6]icosa-1(18),2(20),3,5,15(19),16-hexaene-8-carboxamide], with 0.5 µM; and `Cc1nc(-c2ccc(C(C)(C)C)cc2)nc(C)c1C(=O)N[C@@H](CCN)C(=O)N(C)[C@@H]1C(=O)N[C@@H](C)C(=O)N[C@H](C(=O)NCC#N)Cc2ccc(O)c(c2)-c2cc1ccc2OC[C@H](O)CN` (racemic) [Compound 617, rac-(8S,11S,14S)-N-(cyanomethyl)-3-hydroxy-11-methyl-14-[methyl-[rac-(2S)-4-amino-2-[[2-(4-tert-butylphenyl)-4,6-dimethyl-pyrimidine-5-carbonyl]amino]butanoyl]amino]-10,13-dioxo-18-[rac-(2R)-3-amino-2-hydroxy-propoxy]-9,12-diazatricyclo[13.3.1.12,6]icosa-1(18),2(20),3,5,15(19),16-hexaene-8-carboxamide], with 0.19 µM.
For `Cc1nc(-c2ccc(C(C)(C)C)cc2)nc(C)c1C(=O)N[C@@H](CCN)C(=O)N(C)[C@@H]1C(=O)N[C@@H](C)C(=O)N[C@H](C(=O)NCC#N)Cc2cc(NC(N)=O)c(O)c(c2)-c2cc1ccc2OCCN` (racemic) [Compound 618, rac-(8S,11S,14S)-18-(2-aminoethoxy)-N-(cyanomethyl)-3-hydroxy-11-methyl-14-[methyl-[rac-(2S)-4-amino-2-[[2-(4-tert-butylphenyl)-4,6-dimethyl-pyrimidine-5-carbonyl]amino]butanoyl]amino]-10,13-dioxo-4-ureido-9,12-diazatricyclo[13.3.1.12,6]icosa-1(18),2(20),3,5,15(19),16-hexaene-8-carboxamide], the MIC under setting [2] worked out at 0.19 µM.
`Cc1nc(-c2ccc(C(C)(C)C)cc2)nc(C)c1C(=O)N[C@@H](CCN)C(=O)N(C)[C@@H]1C(=O)N[C@@H](C)C(=O)N[C@H](C(=O)NCC#N)Cc2cc(NC(N)=O)c(OCCN)c(c2)-c2cc1ccc2OCCN` (racemic) [Compound 619, rac-(8S,11S,14S)-3,18-bis(2-aminoethoxy)-N-(cyanomethyl)-11-methyl-14-[methyl-[rac-(2S)-4-amino-2-[[2-(4-tert-butylphenyl)-4,6-dimethyl-pyrimidine-5-carbonyl]amino]butanoyl]amino]-10,13-dioxo-4-ureido-9,12-diazatricyclo[13.3.1.12,6]icosa-1(18),2(20),3,5,15(19),16-hexaene-8-carboxamide]: the MIC under setting [2] is 0.13 µM.
The same measure, in the same setting: under `CC(=O)Nc1cc2cc(c1O)-c1cc(ccc1OCCN)C[C@@H](C(=O)NCC#N)NC(=O)[C@H](C)NC(=O)[C@H]2N(C)C(=O)[C@H](CCN)NC(=O)c1c(C)nc(-c2ccc(C(C)(C)C)cc2)nc1C` (racemic) [Compound 620, rac-(8S,11S,14S)-17-acetamido-3-(2-aminoethoxy)-N-(cyanomethyl)-18-hydroxy-11-methyl-14-[methyl-[rac-(2S)-4-amino-2-[[2-(4-tert-butylphenyl)-4,6-dimethyl-pyrimidine-5-carbonyl]amino]butanoyl]amino]-10,13-dioxo-9,12-diazatricyclo[13.3.1.12,6]icosa-1(18),2(20),3,5,15(19),16-hexaene-8-carboxamide] stands 0.5 µM.
Turning to `Cc1nc(-c2ccc(C(C)(C)C)cc2)nc(C)c1C(=O)N[C@@H](CCN)C(=O)N(C)[C@@H]1C(=O)N[C@@H](C)C(=O)N[C@H](C(=O)NCC#N)Cc2ccc(OCCN)c(c2)-c2cc1cc(NC(N)=O)c2O` (racemic) [Compound 621, rac-(8S,11S,14S)-3-(2-aminoethoxy)-N-(cyanomethyl)-18-hydroxy-11-methyl-14-[methyl-[rac-(2S)-4-amino-2-[[2-(4-tert-butylphenyl)-4,6-dimethyl-pyrimidine-5-carbonyl]amino]butanoyl]amino]-10,13-dioxo-17-ureido-9,12-diazatricyclo[13.3.1.12,6]icosa-1(18),2(20),3,5,15(19),16-hexaene-8-carboxamide], the MIC under setting [1] was 0.25 µM.
`Cc1nc(-c2ccc(C(C)(C)C)cc2)nc(C)c1C(=O)N[C@@H](CCN)C(=O)N(C)[C@@H]1C(=O)N[C@@H](C)C(=O)N[C@H](C(=O)NCC#N)Cc2ccc(OCCN)c(c2)-c2cc1cc(NC(N)=O)c2OCCN` (racemic) [Compound 622, rac-(8S,11S,14S)-3,18-bis(2-aminoethoxy)-N-(cyanomethyl)-11-methyl-14-[methyl-[rac-(2S)-4-amino-2-[[2-(4-tert-butylphenyl)-4,6-dimethyl-pyrimidine-5-carbonyl]amino]butanoyl]amino]-10,13-dioxo-17-ureido-9,12-diazatricyclo[13.3.1.12,6]icosa-1(18),2(20),3,5,15(19),16-hexaene-8-carboxamide]: the MIC under setting [2] worked out at 0.5 µM.
Take `Cc1nc(-c2ccc(C(C)(C)C)cc2)nc(C)c1C(=O)N[C@@H](CCN)C(=O)N(C)[C@@H]1C(=O)N[C@@H](C)C(=O)N[C@H](C(=O)NCC#N)Cc2ccc(N)c(c2)-c2cc1ccc2OCCN` (racemic) [Compound 624, rac-(8S,11S,14S)-3-amino-18-(2-aminoethoxy)-N-(cyanomethyl)-11-methyl-14-[methyl-[rac-(2S)-4-amino-2-[[2-(4-tert-butylphenyl)-4,6-dimethyl-pyrimidine-5-carbonyl]amino]butanoyl]amino]-10,13-dioxo-9,12-diazatricyclo[13.3.1.12,6]icosa-1(18),2(20),3,5,15(19),16-hexaene-8-carboxamide]: the MIC under setting [1] worked out at 0.38 µM.
